The text below walks through data of patent US20020086278A1, “CHROMOGENIC MEDIA CONTAINING BLOOD OR HEMIN” (priority 1999, published 2002).

A value given as a limit tells only on which side of the number the result lay.

One experiment relates to S. aureus 25923. Put plainly: Example 2: effect of incubation conditions on colony color formation. The experiment is classed as cell-based, Staphylococcus aureus.
Experiment [1] concerns Staphylococcus aureus 25923. Briefly: Example 1: growth and colony color on plates surface-spread with chromogen. Particulars: S. aureus 25923. The experiment is classed as cell-based.
Experiment [2] deals with bacterial test strains of Example 1. Briefly: Example 1: inhibitory effect over all test strains. Particulars: Example 1, all test strains. The class given is cell-based.
In experiment [3] the test system is Streptococcus pneumoniae 6303. Briefly: Example 1: growth and colony color on plates surface-spread with chromogen. The class given is cell-based.
The subject of the next experiment is Group B Strep. 12386. The description is as above. The class given is cell-based. Particulars: for Growth: Group B Strep 12386.
For a further experiment, the system named is N. gonorrhoeae 35201. The description is as above. The experiment is classed as cell-based. Particulars: Summary of Table I; N. gonorrhoeae 35201.
Experiment [4] has as its system Branhamella catarrhalis 25238. The description is as above. The experiment is classed as cell-based. The following applies: for Growth: B. catt 25258.
For experiment [5], the system named is Gardnerella vaginalis 14019. The description is as above. The experiment is classed as cell-based. Particulars: Summary of Table I; G. vaginalis 14014.
Experiment [6] deals with N. sicca 29193. The description is as above. The class given is cell-based.
The subject of a further experiment is S. epidermidis 12228. The description is as above. The experiment is classed as cell-based. The following applies: Summary of Table I; S. epidermidis 12228.
Experiment [7] concerns N. sicca 29193. Put plainly: Example 2: effect of incubation conditions on colony color formation. The experiment is classed as cell-based.

5-Br-4-Cl-3-indolyl-caprylate [X-Cap]: the Colony Color entry with S. aureus 25923 is reported as “blue (l)”; in the experiment with N. sicca 29193 [7], “blue (m)”. Moreover, the Color entry in experiment [1] (Choc II) is “turquoise”; in experiment [1] (TSA II 5SB), “turquoise”; in experiment [1] (TSA Plain), “turquoise”; in the experiment on N. sicca 29193 [6] (Substrate on Choclate II Agar, N. sicca. 29193) it was “blue”. Further, the “Substrates Producing Color” value in experiment [1] (Summary of Table I) was “X-Cap”; with N. sicca 29193 [6] (Summary of Table I, N. sicca 29193), “X-cap”. Further, the Inhibitory effect result in [2] is reported as “most inhibitory effect”. Also, the “Substrates Producing Growth Inhibition” value in [3] (Summary of Table I, S. pneumoniae 6303) is recorded as “X-Cap”; with Group B Strep. 12386 (Summary of Table I, Group B Strep. 12386), “Slight inhib. w/ X-”; in the experiment on N. gonorrhoeae 35201 it was “X-Cap”; in [4] (Summary of Table I, B. catarrhalis 25238), “X-Cap”; in experiment [5], “X-Cap”; in the experiment with S. epidermidis 12228, “X-Cap”. Moreover, the Growth result in experiment [3] (TSA II 5SB, S. pneu: 6303) is listed as “<”; with Group B Strep. 12386 (Choc II), “<<”; in the experiment on Group B Strep. 12386 (TSA II 5SB), “<”; in [4] (Choc II) it was “<”; in experiment [4] (TSA II 5SB) it was “<”.
